Three molecules from ChEMBL document CHEMBL4334516, “Kinase Chemodiversity from the Arctic: The Breitfussins” (J Med Chem, 2019) can be followed below.

The target in series [1] is Mitogen-activated protein kinase kinase kinase 11 (Homo sapiens, UniProt Q16584). The series can be described thus: Inhibition of MLK3 (unknown origin) assessed as residual enzyme activity at 5 uM by [33P]-ATP filter binding kinase assay relative to control.
Series [2] deals with AMP-activated protein kinase, AMPK (Homo sapiens) (UniProt P54646+O43741+P54619+Q9UGJ0+Q9Y478+Q13131+Q9UGI9). Nature of the series: Inhibition of AMPK (unknown origin) assessed as residual enzyme activity at 50 uM by [33P]-ATP filter binding kinase assay relative to control. The series is classed as protein-complex assay.
Series [3] addresses Serine/threonine-protein kinase 17B (Homo sapiens) (UniProt O94768). The series can be described thus: Binding affinity to wild-type human full length DRAK2 (M1 to C372 residues) expressed in bacterial expression system assessed as residual binding level at 10 uM by active-site directed competition binding assay based Kinomescan method relative to control.
The nature of series [4]: Toxicity in zebrafish embryos assessed as induction of necrosis by measuring unaffected embryos level at 1.4 uM after 72 hrs (reference value: 100%). Also on record: species or system Danio rerio. The settings on record: in vivo.
A short description of series [5]: Toxicity in zebrafish embryos assessed as induction of general edema by measuring unaffected embryos level at 0.1 uM after 72 hrs (reference value: 100%). Also on record: species or system Danio rerio. Particulars: in vivo.
Series [6] in a line: Toxicity in zebrafish embryos at 0.1 to 1396 uM after 72 hrs. More on the design: species or system Danio rerio. The settings on record: in vivo, read-out: LD50.
Series [7] has as its target Cyclin-G-associated kinase (Homo sapiens, UniProt O14976). Nature of the series: Binding affinity to wild-type human partial length GAK (G13 to Y338 residues) expressed in bacterial expression system by active-site directed competition binding assay based Kinomescan method.
Series [8] deals with Mitogen-activated protein kinase 15 (Homo sapiens) (UniProt Q8TD08). Nature of the series: Inhibition of ERK8 (unknown origin) assessed as residual enzyme activity at 50 uM by [33P]-ATP filter binding kinase assay relative to control.
A further series deals with A673. The series can be described thus: Cytotoxicity in human A673 cells assessed as reduction in cell viability incubated for 72 hrs by SRB assay. The settings on record: A673, 72 h. On the technique in general: In SRB staining, fixed cells bind dye roughly in proportion to their protein.
Series [9] in a line: Toxicity in zebrafish embryos assessed as induction of necrosis by measuring unaffected embryos level at 14 uM after 72 hrs (reference value: 100%). More on the design: species or system Danio rerio. Particulars: in vivo.
Series [10] concerns the target Dual specificity tyrosine-phosphorylation-regulated kinase 1A (Homo sapiens, UniProt Q13627). The series can be described thus: Binding affinity to wild-type human partial length DYRK1A (H129 to S509 residues) expressed in mammalian expression system assessed as residual binding level at 10 uM by active-site directed competition binding assay based Kinomescan method relative to control.

Series [11] is described as follows: Cytotoxicity in human MT3 cells assessed as reduction in cell viability incubated for 72 hrs by SRB assay. Particulars: MT-3, 72 h.
Series [12] concerns the target T1, Mitogen-activated protein kinase kinase kinase 7 (Homo sapiens) (UniProt O43318).
T1 sequence (whole entry): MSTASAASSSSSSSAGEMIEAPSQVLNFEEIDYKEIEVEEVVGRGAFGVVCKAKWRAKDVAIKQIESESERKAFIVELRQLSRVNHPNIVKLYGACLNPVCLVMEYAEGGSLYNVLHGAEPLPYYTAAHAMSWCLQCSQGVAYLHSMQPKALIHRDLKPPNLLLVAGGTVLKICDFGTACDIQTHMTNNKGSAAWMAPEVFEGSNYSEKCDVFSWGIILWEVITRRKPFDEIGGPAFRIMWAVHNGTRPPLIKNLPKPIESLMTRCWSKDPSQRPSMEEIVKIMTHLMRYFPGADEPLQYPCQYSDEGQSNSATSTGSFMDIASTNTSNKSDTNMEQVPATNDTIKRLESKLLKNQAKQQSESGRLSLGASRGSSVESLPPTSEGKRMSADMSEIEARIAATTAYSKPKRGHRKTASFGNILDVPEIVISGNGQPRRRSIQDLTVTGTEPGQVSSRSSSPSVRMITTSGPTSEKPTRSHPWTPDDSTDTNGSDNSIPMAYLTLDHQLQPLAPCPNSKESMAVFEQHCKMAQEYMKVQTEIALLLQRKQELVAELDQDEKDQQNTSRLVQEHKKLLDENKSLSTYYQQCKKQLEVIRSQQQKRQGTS
Nature of the series: Inhibition of TAK1 (unknown origin) assessed as residual enzyme activity at 1 uM by [33P]-ATP filter binding kinase assay relative to control.

Series [13] in a line: Toxicity in zebrafish embryos assessed as induction of general edema by measuring unaffected embryos level at 1.4 uM after 72 hrs (reference value: 100%). Also on record: species or system Danio rerio. The settings on record: in vivo.
Series [14] deals with T2, Receptor-interacting serine/threonine-protein kinase 2 (Homo sapiens, UniProt O43353). The series can be described thus: Inhibition of RIPK2 (unknown origin) assessed as residual enzyme activity at 1 uM by [33P]-ATP filter binding kinase assay relative to control.
In series [15] the target is Serine/threonine-protein kinase SIK3 (Homo sapiens, UniProt Q9Y2K2). Nature of the series: Binding affinity to wild-type human partial length SIK3 (A90 to L395 residues) expressed in mammalian expression system assessed as residual binding level at 10 uM by active-site directed competition binding assay based Kinomescan method relative to control.
A short description of series [16]: Toxicity in zebrafish embryos assessed as induction of tail degeneration by measuring unaffected embryos level at 0.1 uM after 72 hrs (reference value: 100%). The settings on record: in vivo. The series is classed as tissue-based, Danio rerio.
The nature of series [17]: Toxicity in zebrafish embryos assessed as induction of necrosis by measuring unaffected embryos level at 0.1 uM after 72 hrs (reference value: 100%). Also on record: species or system Danio rerio. Particulars: in vivo.
A further series has as its target Aurora kinase B (Homo sapiens, UniProt Q96GD4). The series can be described thus: Binding affinity to wild-type human partial length AURKB (D25 to A303 residues) expressed in mammalian expression system assessed as residual binding level at 10 uM by active-site directed competition binding assay based Kinomescan method relative to control.
Another series has as its system BT-20. The series can be described thus: Cytotoxicity in human BT20 cells assessed as reduction in cell viability incubated for 72 hrs by SRB assay. The settings on record: BT-20, 72 h.
A short description of series [18]: Toxicity in zebrafish embryos assessed as induction of heart edema by measuring unaffected embryos level at 0.1 uM after 72 hrs (reference value: 100%). The series is classed as tissue-based, Danio rerio. Particulars: in vivo.
Series [19] addresses Serine/threonine-protein kinase pim-1 (Homo sapiens, UniProt P11309). The series can be described thus: Binding affinity to wild-type human partial length PIM1 (A15 to K313 residues) expressed in bacterial expression system assessed as residual binding level at 10 uM by active-site directed competition binding assay based Kinomescan method relative to control.
Series [20] is described as follows: Solubility in assay media (PTU-E3 water). The series is classed as physicochemical. The settings on record: buffer.
The target in series [21] is T2, Receptor-interacting serine/threonine-protein kinase 2. The series can be described thus: Inhibition of RIPK2 (unknown origin) assessed as residual enzyme activity at 50 uM by [33P]-ATP filter binding kinase assay relative to control.
A short description of series [22]: Stability in mouse liver microsomes supplemented with UDP-glucuronic acid assessed as parent compound remaining level at 5 uM incubated for 1 hr by LC-MS analysis. The class given is ADME, Microsome. Particulars: read-out: Stability. Background: Microsomes from liver hold many membrane-bound enzymes, among them those of drug oxidation.
The target in series [23] is Receptor-type tyrosine-protein kinase FLT3 (Homo sapiens, UniProt P36888, N841I). Nature of the series: Binding affinity to human partial length FLT3 N841I mutant (V592 to Y969 residues) expressed in bacterial expression system by active-site directed competition binding assay based Kinomescan method.

Where only a bound is given, the exact number is not on record here.

Turning to `COc1cc(Br)cc2[nH]cc(-c3cnc(-c4ccc[nH]4)o3)c12`, the Activity in [1] stood at 7%.

Turning to `COc1cc(Br)cc2[nH]cc(-c3oc(-c4ccc[nH]4)nc3I)c12`, the Activity in series [2] was determined as 28%.

In the case of `COc1cc2c(-c3cnc(-c4ccc[nH]4)o3)c[nH]c2cc1Br`, the Activity was 1.2% in series [3]; 0% in [4]; 100% in [5]; 9% in series [8]; 0% in series [9]; 75% in series [10]. The Activity in [12] came out at 35%; in series [13] it was 100%; in series [14], 41%; in series [15], 94%; in series [16] it was 100%; in series [17], 100%. The Activity on Aurora kinase B worked out at 50%; in series [18], 95%; in series [19], 9.5%; in [21] it was 10%. Besides, in series [6], the LC50 at 72 h is 1400 nM. Also, the Kd (usually the concentration at which binding is half-saturated) in series [7] was 440 nM; in series [23] it was 8900 nM. The IC50 (usually the concentration that gives 50% inhibition) is 2200 nM in the series with A673, 930 nM in series [11] and above 30000 nM in the series on BT-20. In addition, the solubility result in series [20] was “Insoluble”. In addition, the remaining at 1 h, 5 µM in series [22] amounted to 100%.
